Read-outs that look alike come from different tables or passages of the source.
Test: Pharmacokinetics after iv and oral dosing
Format: in vivo, BALB/c mice
Conditions: for half-life: read-out: t1/2z (converted)
[1] = mouse, plasma, iv 2 mg/kg, female BALB/c mice
[2] = mouse, plasma, iv 2 mg/kg, male BALB/c mice
[3] = mouse, plasma, po 30 mg/kg, female BALB/c mice
[4] = mouse, plasma, po 30 mg/kg, male BALB/c mice
[5] = mouse, plasma, po 60 mg/kg, female BALB/c mice
[6] = mouse, plasma, po 60 mg/kg, male BALB/c mice
[7] = mouse, plasma, po 120 mg/kg, female BALB/c mice
[8] = mouse, plasma, po 120 mg/kg, male BALB/c mice
[9] = po 30 mg/kg, female BALB/c mice
[10] = po 60 mg/kg, female BALB/c mice
[11] = po 120 mg/kg, female BALB/c mice

SMILES: Cc1cc(C#N)cc(C)c1Oc1nc(NC2CCN(Cc3ccc(S(N)(=O)=O)cc3)CC2)nc2ccsc12 [K-5a2]
- bioavailability (BALB/c, mouse, plasma, female mice, oral doses, read-out: Oral bioavailability): 8.5 ± 2.7%
- bioavailability (BALB/c, mouse, plasma, male mice, oral doses, read-out: Oral bioavailability): 6.8 ± 1.3%
- Tmax (both, mouse, plasma, single oral administration at 30, 60, or 120 mg/kg, BALB/c mice, read-out: Time to peak plasma concentration): 15 to 30 min
- Cmax (female, BALB/c, mouse, plasma, iv, 2 mg/kg, iv 2 mg/kg, female BALB/c mice, read-out: Cmax): 1100 ng/mL
- Cmax (female, BALB/c, mouse, plasma, po, 30 mg/kg, po 30 mg/kg, female BALB/c mice, read-out: Cmax): 416 ng/mL
- Cmax (female, BALB/c, mouse, plasma, po, 60 mg/kg, po 60 mg/kg, female BALB/c mice, read-out: Cmax): 1100 ng/mL
- Cmax (female, BALB/c, mouse, plasma, po, 120 mg/kg, po 120 mg/kg, female BALB/c mice, read-out: Cmax): 1940 ng/mL
- Cmax (iv 2 mg/kg, female BALB/c mice, 2 mg/kg): 1098.3 ng/mL
- Cmax (iv 2 mg/kg, male BALB/c mice, 2 mg/kg): 1078.7 ng/mL
- Cmax (male, BALB/c, mouse, plasma, iv, 2 mg/kg, iv 2 mg/kg, male BALB/c mice, read-out: Cmax): 1080 ng/mL
- Cmax (male, BALB/c, mouse, plasma, po, 30 mg/kg, po 30 mg/kg, male BALB/c mice, read-out: Cmax): 345 ng/mL
- Cmax (male, BALB/c, mouse, plasma, po, 60 mg/kg, po 60 mg/kg, male BALB/c mice, read-out: Cmax): 749 ng/mL
- Cmax (male, BALB/c, mouse, plasma, po, 120 mg/kg, po 120 mg/kg, male BALB/c mice, read-out: Cmax): 1680 ng/mL
- AUC(0-t) [1]: 461 ng·h/mL
- clearance [1]: 69.2 mL/min/kg
- Tmax (mouse, plasma, iv 2 mg/kg, female BALB/c mice, read-out: Tmax): 1.98 min
- Vd (mouse, plasma, iv 2 mg/kg, female BALB/c mice, read-out: Vd): 14.1 L/kg
- half-life [1]: 141 min
- AUC(0-t) [2]: 454 ng·h/mL
- clearance [2]: 70.5 mL/min/kg
- Tmax (mouse, plasma, iv 2 mg/kg, male BALB/c mice, read-out: Tmax): 1.98 min
- Vd (mouse, plasma, iv 2 mg/kg, male BALB/c mice, read-out: Vd): 13.3 L/kg
- half-life [2]: 131 min
- AUC(0-t) [3]: 488 ng·h/mL
- bioavailability (mouse, plasma, po 30 mg/kg, female BALB/c mice, read-out: F): 7.05%
- Tmax (mouse, plasma, po 30 mg/kg, female BALB/c mice, read-out: Tmax): 15 min
- half-life [3]: 65.4 min
- AUC(0-t) [4]: 482 ng·h/mL
- bioavailability (mouse, plasma, po 30 mg/kg, male BALB/c mice, read-out: F): 7.08%
- Tmax (mouse, plasma, po 30 mg/kg, male BALB/c mice, read-out: Tmax): 30 min
- half-life [4]: 62.4 min
- AUC(0-t) [5]: 1420 ng·h/mL
- bioavailability (mouse, plasma, po 60 mg/kg, female BALB/c mice, read-out: F): 10.2%
- Tmax (mouse, plasma, po 60 mg/kg, female BALB/c mice, read-out: Tmax): 15 min
- half-life [5]: 71.4 min
- AUC(0-t) [6]: 968 ng·h/mL
- bioavailability (mouse, plasma, po 60 mg/kg, male BALB/c mice, read-out: F): 7.1%
- Tmax (mouse, plasma, po 60 mg/kg, male BALB/c mice, read-out: Tmax): 30 min
- half-life [6]: 85.2 min
- AUC(0-t) [7]: 3580 ng·h/mL
- bioavailability (mouse, plasma, po 120 mg/kg, female BALB/c mice, read-out: F): 12.9%
- Tmax (mouse, plasma, po 120 mg/kg, female BALB/c mice, read-out: Tmax): 30 min
- half-life [7]: 49.2 min
- AUC(0-t) [8]: 2460 ng·h/mL
- bioavailability (mouse, plasma, po 120 mg/kg, male BALB/c mice, read-out: F): 9.05%
- Tmax (mouse, plasma, po 120 mg/kg, male BALB/c mice, read-out: Tmax): 30 min
- half-life [8]: 105 min
- CL [9]: 1007 mL/min/kg
- Vd [9]: 95.0 L/kg
- CL (po 30 mg/kg, male BALB/c mice): 1016 mL/min/kg
- Vd (po 30 mg/kg, male BALB/c mice): 91.4 L/kg
- CL [10]: 697.5 mL/min/kg
- Vd [10]: 71.9 L/kg
- CL (po 60 mg/kg, male BALB/c mice): 1021 mL/min/kg
- Vd (po 60 mg/kg, male BALB/c mice): 125.1 L/kg
- CL [11]: 557.2 mL/min/kg
- Vd [11]: 39.7 L/kg
- CL (po 120 mg/kg, male BALB/c mice): 791.3 mL/min/kg
- Vd (po 120 mg/kg, male BALB/c mice): 120.2 L/kg

From paper PMC9699427 (Viruses, 2022)
